Experiment [1] concerns adjuvant-induced arthritis. Nature of the experiment: Adjuvant-induced arthritis model, Randall Selitto assay (mechanical hyperalgesia). In kind it is in vivo, rat. To be noted: Lewis rats, dosed day 0 to day 28: LJP1207 30 mg/kg po qd, MTX 0.25 mg/kg ip 3 times per week; assessed day 7, 14, 18, 21, 25, 28; FIG. 2. The source says:
Rats injected into the hindpaw with a mixture of Mycobacterium butirricum emulsified in light mineral oil develop a severe polyarthritis which shares some features in common with human rheumatoid arthritis (RA), such as swelling of the extremities, cartilage degradation, loss of joint function and lymphocyte infiltration into diseased joints. This model was originally described more than 60 years ago (Pearson et al., Arthritis and Rheumatology. 1959. 2(5), 440-459) and is still the most widely used assay to identify chemical agents having a potential therapeutic efficacy in RA. […] Furthermore, this is a well-established model for inflammatory pain, especially longer-term (i.e. chronic) inflammatory pain.
Male Lewis rats (220-230 g) were housed in propylene cages with food and water ad libitum. The light cycle was automatically controlled and the room temperature thermostatically regulated to 21±1° C. Prior to the start of the experiment animals were housed in these conditions for 6-8 days.
Rats were anaesthetized before induction of CFA and then were treated orally starting from day 0 to day 28 with LJP1207 (30 mg/kg po qd) or methotrexate (MTX, 0.25 mg/kg ip 3 times per week). Control rats received the vehicle e.g. PBS starting from day 0. […] The development of arthritis was assessed at day 7, 14, 18, 21, 25 and 28. […]

The next experiment addresses T1, human VAP-1 (SSAO) (Homo sapiens, UniProt Q16853).
T1 construct: made in house
T1 sequence (Q16853 29-763 limits assumed): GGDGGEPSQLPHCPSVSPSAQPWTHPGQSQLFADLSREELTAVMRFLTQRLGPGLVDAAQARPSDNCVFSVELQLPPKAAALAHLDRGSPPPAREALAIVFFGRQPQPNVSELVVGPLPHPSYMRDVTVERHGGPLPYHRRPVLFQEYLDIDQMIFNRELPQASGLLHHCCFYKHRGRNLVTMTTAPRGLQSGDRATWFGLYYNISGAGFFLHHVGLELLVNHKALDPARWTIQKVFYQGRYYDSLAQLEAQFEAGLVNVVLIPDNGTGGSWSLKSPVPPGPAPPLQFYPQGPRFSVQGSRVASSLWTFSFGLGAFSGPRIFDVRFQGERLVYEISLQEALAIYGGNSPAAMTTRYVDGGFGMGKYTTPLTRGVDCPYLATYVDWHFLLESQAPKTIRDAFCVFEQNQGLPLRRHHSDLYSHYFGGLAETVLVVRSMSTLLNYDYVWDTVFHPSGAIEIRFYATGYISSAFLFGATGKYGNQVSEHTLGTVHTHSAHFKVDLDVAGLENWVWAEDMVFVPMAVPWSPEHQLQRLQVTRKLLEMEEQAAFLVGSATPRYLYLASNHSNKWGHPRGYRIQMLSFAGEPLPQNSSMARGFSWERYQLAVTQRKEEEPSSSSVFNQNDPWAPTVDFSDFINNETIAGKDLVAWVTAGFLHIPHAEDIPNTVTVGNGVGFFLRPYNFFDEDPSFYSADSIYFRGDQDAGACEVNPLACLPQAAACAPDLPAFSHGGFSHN
Nature of the experiment: VAP-1 Inhibition Assay (benzylamine substrate, HRP-coupled hydrogen peroxide or 14C benzaldehyde detection). In kind it is biochemical. To be noted: purified recombinant human VAP-1 (SSAO), room temperature. As to the method: This assay is performed at room temperature with purified recombinantly expressed human VAP-1 (SSAO). Enzyme was prepared essentially as described in Ohman et al. (Protein Expression and Purification 46 (2006) 321-331). The enzyme activity is assayed with benzylamine as substrate by measuring either benzaldehyde production, using 14C-labeled substrate, or by utilizing the production of hydrogen peroxide in a horseradish peroxidise (HRP) coupled reaction. Briefly, test compounds are dissolved in dimethyl sulfoxide (DMSO) to a concentration of 10 mM. […]
Hydrogen peroxide detection: In a horseradish peroxidise (HRP) coupled reaction, hydrogen peroxide oxidation of 10-acetyl-3,7-dihydroxyphenoxazine produces resorufin, which is a highly fluorescent compound (Zhout and Panchuk-Voloshina. Analytical Biochemistry 253 (1997) 169-174; Amplex® Red Hydrogen Peroxide/peroxidise Assay kit, Invitrogen A22188). […] Benzylarnine concentration is fixed at a concentration corresponding to the Michaelis constant, determined using standard procedures. Fluorescence intensity is then measured at several time points during 1-2 hours, exciting at 544 nm and reading the emission at 590 nm. […] The inhibition is measured as % decrease of the signal compared to a control without inhibitor (only diluted DMSO). […]

A further experiment concerns the target T2, human SSAO (Homo sapiens, UniProt Q16853).
T2 sequence (Q16853 1-763): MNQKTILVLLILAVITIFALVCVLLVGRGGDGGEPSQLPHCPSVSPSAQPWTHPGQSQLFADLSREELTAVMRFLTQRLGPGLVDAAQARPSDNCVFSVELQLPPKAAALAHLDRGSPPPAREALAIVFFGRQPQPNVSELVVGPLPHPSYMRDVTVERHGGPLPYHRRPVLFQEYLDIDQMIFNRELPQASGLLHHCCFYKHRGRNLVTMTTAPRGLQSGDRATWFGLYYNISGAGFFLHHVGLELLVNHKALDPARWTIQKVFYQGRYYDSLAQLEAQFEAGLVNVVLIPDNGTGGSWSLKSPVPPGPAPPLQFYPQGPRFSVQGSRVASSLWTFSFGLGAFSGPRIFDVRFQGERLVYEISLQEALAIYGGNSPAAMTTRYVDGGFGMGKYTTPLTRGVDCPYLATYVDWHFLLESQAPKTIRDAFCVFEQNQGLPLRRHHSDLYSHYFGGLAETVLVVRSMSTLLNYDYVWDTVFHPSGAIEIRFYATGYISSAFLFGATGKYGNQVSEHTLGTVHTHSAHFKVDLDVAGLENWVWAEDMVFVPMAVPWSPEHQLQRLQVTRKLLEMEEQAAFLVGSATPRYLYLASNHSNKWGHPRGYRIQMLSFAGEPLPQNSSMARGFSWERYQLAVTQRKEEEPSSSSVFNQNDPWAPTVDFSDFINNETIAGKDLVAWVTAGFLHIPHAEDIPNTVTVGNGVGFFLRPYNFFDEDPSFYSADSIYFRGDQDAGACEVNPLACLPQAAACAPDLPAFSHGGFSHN
To be noted: Salter-Cid et al., J Pharmacol Exp Ther. 2005; read-out: human SSAO, IC(50); cited from earlier work.

pIC50: −log10 of the molar value.

As to `CN(Cc1cnc2nc(N)nc(N)c2n1)c1ccc(C(=O)N[C@@H](CCC(=O)O)C(=O)O)cc1` [MTX, methotrexate], the “inhibition of paw withdrawal (nociceptive threshold, Randall Selitto)” value in experiment [1] is given as “significant inhibition starting at day 18 up to day 28”.

For `CC(C)[C@H]1c2[nH]cnc2CCN1C(=O)O[C@H]1CCOC1` [Compound 1, (3S)-Tetrahydrofuran-3-yl (4S)-4-isopropyl-1,4,6,7-tetrahydro-5H-Imidazo[4,5-c]pyridine-5-carboxylate], the pIC50 on human VAP-1 (SSAO) was 7.43. On to `C=C(CNN)c1ccccc1.Cl` [LJP1207, N′-(2-phenyl-allyl)-hydrazine hydrochloride], for which the “inhibition of paw withdrawal (nociceptive threshold, Randall Selitto)” value in experiment [1] was “significant inhibition at day 21, 25 and 28”. Also, the pIC50 at human SSAO was 7.77.

Values taken from patent publication US20200397764A1, “VAP-1 INHIBITORS FOR TREATING PAIN” (BENEVOLENTAI CAMBRIDGE LIMITED, priority 2015, published 2020).
